Test results published in US5079263A, “Manumycin derivatives and the use thereof” (Behringwerke Aktiengesellschaft, priority 1987, dated 1992).

Biological target: T1, PMN elastase (Homo sapiens, UniProt P08246)
T1 construct: The elastase was isolated from human leukocytes; from tissue; host or cells: human leukocytes
T1 sequence (P08246 30-247 limits assumed): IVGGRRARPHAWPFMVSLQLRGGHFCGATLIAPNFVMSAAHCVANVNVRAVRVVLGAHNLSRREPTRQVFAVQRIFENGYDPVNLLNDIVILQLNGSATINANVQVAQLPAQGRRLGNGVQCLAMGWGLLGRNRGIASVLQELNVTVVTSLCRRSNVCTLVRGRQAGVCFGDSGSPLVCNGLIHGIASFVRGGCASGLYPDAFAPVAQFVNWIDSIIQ
Experiment: Assay for Elastase from Polymorphonuclear Granulocytes (PMN Elastase)
Assay type: biochemical
Design: key to inhibiting effect in PMN elastase assay (inactive): Substances which showed no inhibiting effect at the maximum concentration of 100 μg/ml were defined as inactive
Details: for IC50: 1 hour preincubation with enzyme, substrate MeO-Suc-Ala-Ala-Pro-Val-pNA, 15 minutes, 405 nm, maximum 100 μg/ml, read-out: IC50 (inhibiting effect on PMN elastase) (converted); for inhibiting effect on PMN elastase, comparison in words: compared with manumycin / compounds (1) to (3)
Method: The elastase was isolated from human leukocytes by the method described by Engelbrecht et al. (Hoppe-Seyler's Physiol. Chem. 363, pp. 305-315, 1982). The substrate used was the MeO-Suc-[…] (Calbiochem) described by Nakajima et al. (J. Biol. Chem. 254, pp. 4027-4032, 1979). The Liberation of the p-nitroaniline from the substrate in 15 minutes was measured as the increase in absorption at 405 nm in a spectrophotometer. This absorption was defined as 100% activity of the enzyme PMN elastase. The inhibitors of PMN elastase were preincubated in increasing concentrations up to a maximum of 100 μg/ml with the enzyme for 1 hour, and the enzyme reaction was started with the substrate. The IC50 was defined as that inhibitor concentration which inhibits 50% of the enzyme activity.

| SMILES | inhibition of leukocyte elastase, in words | IC50 | inhibiting effect in PMN elastase assay (inactive) (maximum concentration 100 μg/ml, "--" in Table 2) | inhibiting effect on PMN elastase, comparison in words |
| --- | --- | --- | --- | --- |
| CCCC[C@@H](C)/C=C(C)/C=C(\C)C(=O)Nc1cc(/C=C/C=C/C=C/C(=O)NC2=C(O)CCC2=O)c(O)cc1O [Compound (1)] | inhibit leukocyte elastase | 4.68 µM | – | – |
| CCCC[C@@H](C)/C=C(C)/C=C(\C)C(=O)Nc1cc(/C=C/C=C/C=C/C(=O)NC2=C(O)CCC2=O)ccc1O [Compound (2)] | inhibit leukocyte elastase | 5.98 µM | – | – |
| CCCC[C@@H](C)/C=C(C)/C=C(\C)C(=O)Nc1cccc(/C=C/C=C/C=C/C(=O)NC2=C(O)CCC2=O)c1 [Compound (3)] | inhibit leukocyte elastase | 7.16 µM | – | – |
| Nc1cccc(/C=C/C=C/C=C/C(=O)NC2=C(O)CCC2=O)c1 [Compound (4)] | – | – | inactive | – |
| Nc1ccc(/C=C/C=C/C=C/C(=O)NC2=C(O)CCC2=O)cc1 [Compound (5)] | inhibit leukocyte elastase | 135 µM | – | distinctly weaker inhibiting effect |
| CCCCC(C)C=C(C)C=C(C)C(=O)NC1=CC(O)(C=CC=CC=CC(=O)NC2=C(O)CCC2=O)C2OC2C1=O (stereo not drawn) [Manumycin, manumycin] | – | 7.99 µM | – | comparable to that of the compounds (1) to (3) |
